Measurements published in patent US8071810B2, “C5a receptor antagonists” (Jerini AG, priority 2005, dated 2011).
Converted amounts (≈) assume the structure as drawn.

Tests used:
[1] = Solubility in aqueous HEPES buffer by HPLC (Example 33); type: physicochemical; settings: kinetic from dmso stock
Protocol: To determine the solubility the compound to be measured is dissolved (e.g, […] of a 5 mM solution in DMSO) in organic solvent (e.g. 198 μl DMSO) as well as in aqueous buffer solution (e.g. 198 μl HEPES buffer). Both solutions are analyzed via analytical HPLC and the areas under the peaks are compared. The value for the organic solution is taken as 100%.

[2] = target: T1, human C5a receptor (CD88) (Homo sapiens, UniProt P21730); test: C5a induced enzyme (glucosaminidase) release assay in RBL cells expressing the human C5a receptor (Example 28); type: cell-based; settings: inhibition of C5a induced enzyme release, RBL cells with human C5aR; read-out: Activity-range (antagonistic activity, IC50 enzyme release)
T1 construct: expressed in transfected cells; host or cells: rat basophilic leukemia (RBL) cells, stably transfected
T1 sequence (P21730 1-350): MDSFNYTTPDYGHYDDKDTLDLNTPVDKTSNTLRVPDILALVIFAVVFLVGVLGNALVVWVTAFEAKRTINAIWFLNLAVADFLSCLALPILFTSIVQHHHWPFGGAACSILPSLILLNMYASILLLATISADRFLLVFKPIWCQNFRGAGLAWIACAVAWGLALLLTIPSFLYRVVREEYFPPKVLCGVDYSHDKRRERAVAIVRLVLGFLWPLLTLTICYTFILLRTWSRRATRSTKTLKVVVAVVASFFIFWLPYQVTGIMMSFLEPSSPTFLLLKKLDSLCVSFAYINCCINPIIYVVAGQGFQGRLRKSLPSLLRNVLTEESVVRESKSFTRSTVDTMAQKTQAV
Method in brief: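 Rat basophilic leukemia (RBL) cells expressing human C5a receptor, at 2×10^6 cells/ml, primed with cytochalasin B, then incubated with test compound 10 min at 37 °C.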

[3] = target: T1, human C5a receptor (CD88); test: Agonism in enzyme release assay without C5a stimulus (Example 32); type: cell-based; settings: concentration applied 7.1 μM
Protocol: The assay has been described by Köhl (Köhl 1997 The Anaphylatoxins. In: Dodds, A. W., Sim, R. B. (Eds.), Complement: A Practical Approach. Oxford: 135). Basophile leukemia cells from rats (RBL), which express the human C5a receptor (CD88), are cultivated in DMEM with 10% fetal calf serum, 100 U/ml penicillin, 100 μg/ml streptomycin and 2 mM glutamin (all constituents are from Biochrome, Berlin) at 37° C. and with 10% CO2 until a confluent layer is obtained. All following details refer to a tissue culture flask with 75 cm^2 surface. The used up medium is removed. The cells are washed with 10 ml PBS (Dulbecco's PBS, Biochrome) and then covered with 3 ml cell dissociation solution (CDS, Sigma). The cells are incubated for 1 minute at room temperature. Then the CDS is removed and the cells are incubated for further 10-15 minutes at 37° C. to detach the cells completely from the flask. 20 μl solution of the compound to be testet are used in the assay. The assay solution must not contain more than 2.8% DMSO. The dilution series are prepared in ⅓ or ½ steps. To the 20 μl of the compound solutions 75 μl RBL cells are added which are prepared as follows: After the detachment of the cells from the flask surface they are taken up with 10 ml HAG-CM (20 mM HEPES; 125 mM NaCl, 5 mM KCl, 1 mM CaCl2, 1 mM MgCl2, 0.5 mM glucose, 0.25% BSA. HEPES preparation: 2.3 g/l HEPES salt+2.66 g/l HEPES acid) thermostated at 37° C. The cells are counted and centrifuged (200 g, 10 min). The cell pellet is taken up with pre-heated HAG-CM, and the cell density is adjusted to 2×10^6 Zellen/ml. The cells are incubated for 5 minutes at 37° C. 2.7 μl of a cytochalasin B solution (1000 μg/ml in DMSO, Sigma) are added per ml cell suspension. The Zellen are incubated for another 3 min at 37° C. Then, 75 μl of the cell suspension are added to the 20 μl solution containing the compounds to be tested. Thus a volume of […] per well is obtained. The cells are again incubated for 10 minutes at 37° C. Then 10 μl hrC5a (10.5 nM in HAG-CM, Sigma) are added per well, which is followed by 5 minutes incubation at 37° C. After this the plates are put on ice and centrifuged for 3 minutes at 1200×g and 4° C. 75 μl of the supernatant are added to 100 μl substrate solution (2.7 mg/ml p-nitrophenyl-N-acetyl-b-D-glucosaminide (Sigma) in 42.5 mM sodium acetate, pH 4.5). The plate is incubated for 1 hour at 37° C. Per well 75 μl 0.4 M glycine (pH 10.4) are added. After this the plate can be measured at a wave length of 405 nm. The IC50 value is determined by solving the four parameter equation y=((A−D)/(1+(x/C)^B))+D.
The only difference is the fact that 30 μl of the substance to be tested are mixed with 75 μl of the cell suspension described in example 28. The cells are not pre-incubated and no C5a is added to stimulate enzyme release.

| Structure (SMILES) | solubility [1] [µM] | IC50 [2] [nM] | Agonism (% of the maximum enzyme release induced by C5a) [3] [%] |
| --- | --- | --- | --- |
| CCc1c(N)cc(Cl)c(CC)c1NC(=O)N(Cc1ccc(Cl)cc1)c1ccc(CC(F)(F)F)cc1 [compound 103, 3-(3-amino-5-chloro-2,6-diethyl-phenyl)-1-(4-chloro-benzyl)-1-[4-(2,2,2-trifluoro-ethyl)-phenyl]-urea] | 7 (≈ 3.67 µg/mL) | 60 to 200 | 0.00 |
| CCc1ccc(N(Cc2ccc(C)nc2)C(=O)Nc2c(CC)c(N)cc(Cl)c2CC)cc1 [compound 106, 3-(3-amino-5-chloro-2,6-diethyl-phenyl)-1-(4-ethyl-phenyl)-1-(6-methyl-pyridin-3-ylmethyl)-urea] | 83 (≈ 37.4 µg/mL) | 60 to 200 | 0.00 |
| CCc1ccc(N(C(=O)Nc2c(CC)c(N)cc(Cl)c2CC)C(C)c2ccc3c(c2)ncn3C)cc1 (stereo not drawn) [compound 122, 3-(3-amino-5-chloro-2,6-diethyl-phenyl)-1-(4-ethyl-phenyl)-1-[1-(1-methyl-1H-benzoimidazol-5-yl)-ethyl]-urea] | 29 (≈ 14.6 µg/mL) | 60 to 200 | 0.00 |
